4 molecules from PubChem BioAssay (NCI) can be followed below.

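Values below derive from 48-hour exposures of cells grown in 96-well plates, with endpoints linearly interpolated between the two concentrations bracketing the appropriate inhibition level. Here, GI50 denotes the concentration required for 50% inhibition of growth. TGI: concentration producing complete growth inhibition.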 A value given as a limit tells only on which side of the number the result lay.

Test systems include NCI-H460 lung; SK-MEL-5 melanoma; T-47D breast; OVCAR-5 ovarian; 786-0 renal; UO-31 renal; HOP-92 NSCLC; DU-145 prostate; SNB-75 CNS; HS 578T breast.
Holding throughout (assay): NCI tumour cell line growth inhibition, 48 h

Turning to `CCS(=O)(=O)c1ccc(OC)c(Nc2ncc(-c3cccc(-c4ccccc4F)c3)o2)c1`, the GI50 in the assay on NCI-H460 lung is over 25 µM; in the assay with SK-MEL-5 melanoma it was over 14.6 µM; in the assay with T-47D breast, 6.45 µM; in the assay with OVCAR-5 ovarian it was 13 µM; in the assay on 786-0 renal it was 20.3 µM; in the assay with UO-31 renal, 1.48 µM. Further, the GI50 was 3.16 µM in the assay on HOP-92 NSCLC, over 25 µM in the assay with DU-145 prostate, 4.77 µM with SNB-75 CNS and 3.63 µM in the assay with HS 578T breast. Also, the TGI was over 25 µM in the assay with NCI-H460 lung; over 25 µM in the assay on SK-MEL-5 melanoma; over 25 µM with T-47D breast; over 25 µM in the assay on OVCAR-5 ovarian; over 25 µM in the assay on 786-0 renal; 20.3 µM in the assay with UO-31 renal. Besides, the TGI in the assay with HOP-92 NSCLC is 20.7 µM; in the assay with DU-145 prostate, over 25 µM; with SNB-75 CNS it was 24.3 µM; with HS 578T breast, 15.8 µM.

Turning to `COc1c(Nc2ncc(Cl)c(N[C@@H]3[C@H]4C=CC(C4)[C@@H]3C(N)=O)n2)ccc2c1CC[C@@H](N1CCOCC1)CC2`, the GI50 in the assay with NCI-H460 lung was 4.19 µM; in the assay with SK-MEL-5 melanoma, 5.81 µM; in the assay on T-47D breast it was 7.78 µM; in the assay on OVCAR-5 ovarian, 1.4 µM; in the assay with 786-0 renal it was 1.97 µM; in the assay on UO-31 renal it was 2.07 µM. For the same molecule, the GI50 was 1.05 µM with HOP-92 NSCLC, 4.88 µM in the assay with DU-145 prostate, 1.59 µM with SNB-75 CNS and 1.88 µM in the assay with HS 578T breast. The TGI in the assay with NCI-H460 lung stood at 18.2 µM; with SK-MEL-5 melanoma, 19.2 µM; in the assay on T-47D breast, 25.5 µM; in the assay on OVCAR-5 ovarian, 17.8 µM; in the assay with 786-0 renal it was 12.2 µM; in the assay with UO-31 renal, 10.7 µM. The TGI in the assay on HOP-92 NSCLC stood at 6.77 µM; with DU-145 prostate, 27.2 µM; with SNB-75 CNS, 5.89 µM; in the assay with HS 578T breast it was 9 µM.

On to `C[C@@]12CCC[C@@](C)(C(=O)O)C1CC[C@]13C=C(CO)[C@](O)(CCC12)C3` (stereo not given in full), for which the GI50 in the assay with NCI-H460 lung, in the assay on SK-MEL-5 melanoma, in the assay on T-47D breast, in the assay on OVCAR-5 ovarian, in the assay with 786-0 renal and in the assay with UO-31 renal was over 100 µM each time. For the same molecule, the GI50 in the assay with HOP-92 NSCLC, in the assay with DU-145 prostate, in the assay with SNB-75 CNS and in the assay with HS 578T breast was over 100 µM throughout. In addition, the TGI in the assay with NCI-H460 lung, in the assay on SK-MEL-5 melanoma, in the assay with T-47D breast, in the assay on OVCAR-5 ovarian, with 786-0 renal and with UO-31 renal was over 100 µM each time. Further, the TGI in the assay with HOP-92 NSCLC, in the assay on DU-145 prostate, in the assay with SNB-75 CNS and with HS 578T breast was over 100 µM in each case.

As to `S=C(Nc1ccc(-c2nc3ccccc3s2)cc1)Nc1ccccn1`, the GI50 in the assay with NCI-H460 lung is 41.2 µM; in the assay with SK-MEL-5 melanoma it was 17.2 µM; with T-47D breast, 23.6 µM; in the assay with OVCAR-5 ovarian, over 52.8 µM; with 786-0 renal, 24.7 µM; in the assay on UO-31 renal, 19.6 µM. The GI50 in the assay on HOP-92 NSCLC was 16.7 µM; in the assay on DU-145 prostate it was 28.5 µM; in the assay on SNB-75 CNS, 12 µM; with HS 578T breast, 21.5 µM. The TGI in the assay with NCI-H460 lung was over 100 µM; in the assay on SK-MEL-5 melanoma it was 36.2 µM; with T-47D breast, over 95.5 µM; in the assay on OVCAR-5 ovarian, over 81.4 µM; with 786-0 renal it was 70.4 µM; in the assay with UO-31 renal, over 68.9 µM. The TGI was 64.1 µM in the assay on HOP-92 NSCLC, over 100 µM in the assay on DU-145 prostate, over 51.2 µM with SNB-75 CNS and 59.2 µM in the assay on HS 578T breast.
